Experimental data published in article PMC12173503, “Enterohaemorrhagic Escherichia coli AdhE spirosome length correlates with enzymatic directionality and is perturbed by salicylidene acylhydrazides” (Open Biology, 2025).

Legend:
AdhE (6-His-AdhE) [1] = target: T1, AdhE (6-His-AdhE) (Escherichia coli, UniProt P0A9Q7); assay: NADH consumption at […] nm; assay type: biochemical; design: full-length AdhE, N-terminal 6-His tag kept, pET28a, expressed in E. coli BL21(DE3); spirosome oligomers, SEC fractions F12 (long) and F24 (short); settings: forward reaction; 200 μM acetyl-CoA, 250 μM NADH, 20 μM FeSO4, 250 mM NaCl, 50 mM Tris-HCl pH 8.0, 37 °C
T1 sequence (P0A9Q7 whole entry): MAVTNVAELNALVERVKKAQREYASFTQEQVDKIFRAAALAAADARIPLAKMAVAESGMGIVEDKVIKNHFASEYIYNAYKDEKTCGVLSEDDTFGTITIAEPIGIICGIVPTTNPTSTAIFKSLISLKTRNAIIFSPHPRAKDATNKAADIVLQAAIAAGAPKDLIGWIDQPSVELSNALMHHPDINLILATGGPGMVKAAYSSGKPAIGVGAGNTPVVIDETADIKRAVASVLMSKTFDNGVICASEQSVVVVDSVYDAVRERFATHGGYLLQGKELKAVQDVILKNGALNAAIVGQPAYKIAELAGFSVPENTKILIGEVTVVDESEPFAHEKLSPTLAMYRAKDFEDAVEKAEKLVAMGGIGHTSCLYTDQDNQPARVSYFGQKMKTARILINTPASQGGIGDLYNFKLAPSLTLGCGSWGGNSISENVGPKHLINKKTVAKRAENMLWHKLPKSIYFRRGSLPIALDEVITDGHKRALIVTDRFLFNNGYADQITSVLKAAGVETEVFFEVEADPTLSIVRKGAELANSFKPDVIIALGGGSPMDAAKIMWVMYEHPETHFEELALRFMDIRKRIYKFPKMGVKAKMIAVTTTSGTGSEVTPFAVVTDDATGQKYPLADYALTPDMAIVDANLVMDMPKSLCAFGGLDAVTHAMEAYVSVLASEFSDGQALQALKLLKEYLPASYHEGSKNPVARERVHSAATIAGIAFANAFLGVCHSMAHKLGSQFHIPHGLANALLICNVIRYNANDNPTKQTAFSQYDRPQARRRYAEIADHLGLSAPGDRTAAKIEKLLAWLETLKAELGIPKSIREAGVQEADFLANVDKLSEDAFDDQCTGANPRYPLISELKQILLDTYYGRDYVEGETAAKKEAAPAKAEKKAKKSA

AdhE (6-His-AdhE) [2] = target: T1, AdhE (6-His-AdhE); settings: reverse reaction; 200 mM ethanol, 500 μM NAD+, 200 μM CoASH, 20 μM FeSO4, 250 mM NaCl, 50 mM Tris-HCl pH 8.0, 37 °C

Row | Compound | NADH consumption at 340 nm (AdhE (6-His-AdhE) [1]) | NADH production at 340 nm (AdhE (6-His-AdhE) [2])
1 | CC(=O)SCCNC(=O)CCNC(=O)[C@H](O)C(C)(C)COP(=O)(O)OP(=O)(O)OC[C@H]1O[C@@H](n2cnc3c(N)ncnc32)[C@H](O)[C@@H]1OP(=O)(O)O [acetyl-CoA] | F12 or F24 was incubated with acetyl-CoA in the presence of NADH | 
2 | CCO [ethanol] |  | F12 or F24 was incubated with ethanol, NAD^+ and CoASH
